Data taken from paper PMC2441954, “Phase I pharmacokinetic and pharmacodynamic study of the prenyl transferase inhibitor AZD3409 in patients with advanced cancer” (British Journal of Cancer, 2008).
Read-outs that look alike come from different tables or passages of the source.

Experiments:
FTase = biological target: FTase; parameters: method as in Stephens et al, 2003; settings: Ki4B-Ras as substrate; ref Stephens et al, 2003; cited from earlier work
[1] = Plasma pharmacokinetics (LC-MS/MS, noncompartmental) in phase I patients; format: in vivo, human; settings: for Cmax / AUC: human, plasma, oral; for AUC: read-out: AUC0−τ
Method: Pharmacokinetic studies were performed in all patients. Ethylenediaminetetraacetic acid blood samples were collected during the first cycle: on day 1 before the first drug intake and 0.5, 1, 2, 4, 6, 8, 12 and 24 h after administration; on days 3, 8 and 15 before the morning drug intake and 2 h after administration; and on day 22 before the morning drug intake and 0.5, 1, 2, 4, 6, 8, 12 and 24 h after administration. Samples were immediately put on ice and centrifuged at 4°C for 10 min at 1500 g. The resulting plasma was stored at −70°C until analysis. Plasma samples of the last three patients were not measured as the study was stopped before analysis.
The total plasma concentrations of AZD3409 ester and AZD3409 acid were determined by LC–MS/MS. The plasma samples were treated with dithiothreitol to reduce any disulphide bonds. The sample pretreatment was based on protein precipitation with acidic acetonitrile. Isotopically labelled analogues were used as internal standards. The method has been validated regarding selectivity, accuracy, precision and stability in human plasma. The lower limit of quantification was 3 ng ml^−1 for both AZD3409 ester and AZD3409 acid, with a 50 μl sample volume.
The following PK parameters were determined, either by direct observation or by noncompartmental analysis (WinNonlin, version 5.0.1; Pharsight, Mountain View, CA, USA): the minimal plasma concentration (Cmin), the maximal plasma concentration (Cmax), the area under the curve within one dosing interval (AUC0−τ) and total plasma clearance (Cl/F). Correlations between dose and Cmax levels and between dose and AUC0−τ were analysed on day 1 using the nonparametric Spearman's ρ (Rs) correlation test. Accumulation was tested with an exact Wilcoxon's rank paired signed test. Linear measures mixed effects models were constructed with SAS (SAS Institute Inc., Cary, NC, USA) to determine the effect of the dose on the trough plasma concentrations of both metabolites. The daily dose, time (days), gender and age were considered to be a fixed effect, and the patient variable was considered to be a random effect. Owing to the distribution of the trough plasma concentration log transformation was applied.

GGTase-1 = biological target: GGTase-1; parameters: method as in Stephens et al, 2003; settings: Ki4B-Ras as substrate; ref Stephens et al, 2003; cited from earlier work
[2] = system: 253J-BV urothelial cells xenografts; parameters: method as in Stephens et al, 2003; Kelly et al, 2005; settings: mice bearing 253J-BV xenografts; ref Stephens et al, 2003; Kelly et al, 2005; cited from earlier work
[3] = system: RT-112 urothelial cells xenografts; parameters: method as in Stephens et al, 2003; Kelly et al, 2005; settings: mice bearing RT-112 xenografts; ref Stephens et al, 2003; Kelly et al, 2005; cited from earlier work
[4] = system: H-Ras-transformed mouse 3T3 fibroblasts (Hras5) xenografts; parameters: method as in Stephens et al, 2003; Kelly et al, 2005; settings: mice bearing Hras5 xenografts; ref Stephens et al, 2003; Kelly et al, 2005; cited from earlier work
Calu-6 xenograft = system: Calu-6 xenograft; parameters: method as in unpublished data; settings: Calu-6 xenograft model, ref unpublished data, cited from earlier work
[5] = healthy male volunteers; earlier trial, no reference given; cited from earlier work
solid malignant tumour = assay: Tumour response (RECIST) in phase I patients; format: in vivo, human
Method: Pretreatment evaluation included a complete medical history and physical examination. Measurable and evaluable disease was documented before the start of the study and during the study as a basis for the assessment of clinical activity of the treatment. Tumour response was recorded according to RECIST criteria ([Therasse et al, 2000]). Toxicity was monitored at each visit. All toxicities observed were graded according to the Common Toxicity Criteria, version 2.0 ([National Cancer Institute, 1998]). DLT was defined as any of the following events during the first treatment cycle: grade 3 or 4 anaemia or thrombocytopaenia, febrile neutropaenia grade 3, or grade 4 neutropaenia, grade 3 or 4 biochemical toxicity, grade 2 (or worse) nausea and vomiting despite optimal antiemetic therapy, grade 3 or 4 diarrhoea despite optimal loperamide support, failure to take study medication for 7 days or more within the first treatment cycle due to drug-related toxicity or any CTC grade 3 or 4 nonhaematological toxicity (excluding alopaecia). The MTD was defined as the dose below the dose at which two or three of three, or two or more of six patients experienced DLT during cycle 1.

[6] = parameters: method as in Kelly et al, 2005; settings: rats, oral dosing, pilot mass balance study; ref Kelly et al, 2005; cited from earlier work
tumour cells = system: tumour cells; parameters: method as in Kelly et al, 2005; settings: in vitro; corresponds to the μM values; ref Kelly et al, 2005; cited from earlier work
cytochrome P450 = system: cytochrome P450; parameters: method as in unpublished data; settings: once daily oral dosing to rats for 28 days; ref unpublished data; cited from earlier work
[7] = 500 mg once daily, day 1, dose 500 (once daily), N=3, mean (SD)
[8] = 500 mg once daily, day 22, dose 500 (once daily), N=2, absolute values
[9] = 750 mg b.i.d., day 1, dose 750 b.i.d., N=8, mean (SD)
[10] = 750 mg b.i.d., day 22, dose 750 b.i.d., N=3, mean (SD)
[11] = 1000 mg once daily, day 1, dose 1000 (once daily), N=3, mean (SD)
[12] = 1000 mg once daily, day 22, dose 1000 (once daily), N=3, mean (SD)
[13] = 1250 mg b.i.d., day 1, dose 1250 b.i.d., N=6, mean (SD)
[14] = 1250 mg b.i.d., day 22, dose 1250 b.i.d., N=4, mean (SD)
[15] = 1500 mg b.i.d., day 1, dose 1500 b.i.d., N=2, absolute values
[16] = 1750 mg b.i.d., day 1, dose 1750 b.i.d., N=4, mean (SD)
[17] = 1750 mg b.i.d., day 22, dose 1750 b.i.d., N=1

For `CSCC[C@H](NC(=O)c1cc(NC[C@@H]2C[C@H](S)CN2)ccc1CCc1ccc(F)cc1)C(=O)O` [AZD3409 acid], the Ki (FTase) is listed as under 1 nM, the “mean time at which Cmax was reached” value ([1]; cycle 1, plasma) is listed as 2.7 h and the “Spearman correlation (Rs) between dose and AUC” value ([1]; day 1) is listed as 0.52. The “Spearman correlation (Rs) between dose and Cmax” value ([1]; day 1) was 0.43, the Cl/F ([1]; day 22, dose 500 (once daily), N=2, absolute values) was “[465–488] l h^−1” and the Cl/F ([1]; day 22, dose 750 b.i.d., N=3, mean (SD)) was 473 (155) l h^−1. For the same molecule, the Cl/F ([1]; day 22, dose 1000 (once daily), N=3, mean (SD)) was 710 (148) l h^−1, the Cl/F ([1]; day 22, dose 1250 b.i.d., N=4, mean (SD)) was 785 (311) l h^−1 and the Cl/F ([1]; day 22, dose 1750 b.i.d., N=1) was 1706 L/h. For the same molecule, the “Ratio AUC0−τ day 22/day 1” value ([1]; dose 500 (once daily), N=2, absolute values) was “[2.07–10.1]”, the “Ratio AUC0−τ day 22/day 1” value ([1]; dose 750 b.i.d., N=3, mean (SD)) was 9.29 (11.2) and the “Ratio AUC0−τ day 22/day 1” value ([1]; dose 1000 (once daily), N=3, mean (SD)) was 2.10 (1.19). For the same molecule, the “Ratio AUC0−τ day 22/day 1” value ([1]; dose 1250 b.i.d., N=4, mean (SD)) was 1.95 (1.05), the “Ratio AUC0−τ day 22/day 1” value ([1]; dose 1750 b.i.d., N=1) was 1.23 and the Cmax [1, 7] was 33.6 ng/mL. The AUC [1, 7] was 160 ng·h/mL, the Cmax [1, 8] was 95.9 to 111 ng/mL and the AUC [1, 8] was 712 to 775 ng·h/mL. It also gave a Cmax [1, 9] of 93.8 ng/mL, an AUC [1, 9] of 468 ng·h/mL and a Cmax [1, 10] of 138 ng/mL. The AUC [1, 10] was 934 ng·h/mL, the Cmax [1, 11] was 78.6 ng/mL and the AUC [1, 11] was 512 ng·h/mL. It also gave a Cmax [1, 12] of 106 ng/mL, an AUC [1, 12] of 904 ng·h/mL and a Cmax [1, 13] of 119 ng/mL. The AUC [1, 13] was 677 ng·h/mL, the Cmax [1, 14] was 168 ng/mL and the AUC [1, 14] was 1230 ng·h/mL. The Cmax [1, 15] was 83.5 to 148 ng/mL, the AUC [1, 15] was 458 to 749 ng·h/mL and the Cmax [1, 16] was 140 ng/mL. For the same molecule, the AUC [1, 16] was 751 ng·h/mL, the Cmax [1, 17] was 165 ng/mL and the AUC [1, 17] was 466 ng·h/mL. The “mean trough total AZD3409 acid concentrations” value ([1]; twice daily dosing levels) was 36.3 to 81.9 ng/mL and the Ki (GGTase-1) was 8 nM.
In the case of `CSCC[C@H](NC(=O)c1cc(NC[C@@H]2C[C@H](SC(=O)c3cccnc3)CN2)ccc1CCc1ccc(F)cc1)C(=O)OC(C)C` [AZD3409], the tumour weight [2] is listed as “significant reduction of tumour weight”, the tumour weight [3] is listed as “significant reduction of tumour weight” and the tumour weight [4] is listed as “significant reduction of tumour weight”. For the same molecule, the “reduction of the tumour volume” value (Calu-6 xenograft; associated with 66% FTase inhibition) was 15%, the “inhibition of FTase” value (Calu-6 xenograft) was 66% and the “dose at which diarrhoea was dose limiting” value [5] was 2500 mg once daily. For the same molecule, the “maximum tolerated single dose” value [5] was 1750 mg, the objective tumour response (solid malignant tumour; 18 evaluable patients after 4–14 weeks of treatment) was “No objective tumour response was observed” and the “patients with stable disease” value (solid malignant tumour; out of 16 patients, after approximately 2 months) was 3. The “patients with stable disease” value (solid malignant tumour; three of 18 evaluable patients, stable for 47, 48 and 76 days) was 17%, the “given radioactivity excreted in the urine” value [6] was 1% and the “appearance of parent drug in blood” value ([1]; after oral administration, rapidly metabolised in the gut and plasma to AZD3409 ester) was “does not appear in the blood”. For the same molecule, the “IC50 inhibition of cell proliferation of tumour cells, converted” value (tumour cells) was 0.035 to 3.5 µg/mL and the “changes in cytochrome P450 content or enzyme activity” value (cytochrome P450) was “no biologically significant changes”.
